# Measurements as given in US6309882A, “Antisense inhibition of replication protein a p70 subunit” (ISIS Pharmaceuticals, Inc., priority 1999, dated 2001).
# System: Mia Paca II cells
# Assay: Mia Paca II cell survival, Sulforhodamine B staining
# Format: cell-based, human
# Conditions: for % Cell Killing / % Cell Survival: Mia Paca II, SRB, 6 days
# Description: Cells were transfected with matched, mismatched, or non-allele specific anti-RPA70 (ISIS 12790) oligonucleotides as described above. Following transfection, the cells were allowed to recover either three days (HeLa cells) or 6 days (Mia Paca II cells). The number of cells remaining attached to the tissue culture dish was quantified by Sulforhodamine B (SRB) staining (FluoReporter Colorimetric Cell Protein Assay Kit, Molecular probes).
# However, at 400 nM, there was a statistically significant difference in survival with less survival seen in cells treated with the matched oligonucleotide,VAR 13085, than the mismatched oligonucleotide, ISIS 12781 (p=0.02). At 400 nM, there was a 4.6 fold difference in cell survival between matched and mismatched oligonucleotides. […] The IC50 for inhibition of Mia Paca II cell survival was similar to that for suppression of RPA70 mRNA for both VAR 13085 and ISIS 12790. The effect of antisense treatment on cell survival for both cell lines appears to be cytotoxic rather than cytostatic as the absolute number of cells decreases for both cell lines when treated with matched antisense oligonucleotides.
substance,measurement,setting,value
"ISIS 12790: phosphorothioate oligodeoxynucleotide TGGTCTGCAGTTAGGGTCAG, SEQ ID NO 15, 3'-UTR 2230-2249, non-allele specific (DNA, all phosphorothioate, methylation of C not given here)",effect on cell survival,Mia Paca II cells,dose-dependent decrease in the number of surviving cells
same,IC50,"Mia Paca II cells, read-out: IC50 for decrease in cell survival",< 100 nM
same,% Cell Killing,50 nM,39%
same,% Cell Survival,50 nM,61%
same,% Cell Killing,100 nM,86%
same,% Cell Survival,100 nM,14%
same,% Cell Killing,200 nM,94%
same,% Cell Survival,200 nM,6%
same,% Cell Killing,400 nM,88%
same,% Cell Survival,400 nM,12%
